Biological target: c-kit (Homo sapiens, UniProt P10721)
Test: c-kit assays of Examples 40 and 41 (AlphaScreen kinase assays at 10 and 100 μM ATP, 33P-ATP filter assay, M-07e SCF-stimulated proliferation and phosphorylation)

Sequence of c-kit (P10721 with tags, fused parts or gaps): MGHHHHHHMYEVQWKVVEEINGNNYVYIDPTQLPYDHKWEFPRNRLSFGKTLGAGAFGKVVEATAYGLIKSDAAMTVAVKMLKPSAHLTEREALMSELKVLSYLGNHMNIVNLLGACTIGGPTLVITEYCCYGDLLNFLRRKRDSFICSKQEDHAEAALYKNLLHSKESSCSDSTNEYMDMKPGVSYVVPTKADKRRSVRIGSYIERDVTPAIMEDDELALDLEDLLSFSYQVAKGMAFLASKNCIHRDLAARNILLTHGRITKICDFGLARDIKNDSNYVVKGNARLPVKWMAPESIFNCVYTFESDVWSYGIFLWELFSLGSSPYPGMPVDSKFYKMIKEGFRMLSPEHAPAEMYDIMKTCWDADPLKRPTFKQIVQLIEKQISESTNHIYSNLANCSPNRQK

SMILES | IC50
Cc1nn(C(=O)NCc2ccc(Cl)cc2)c(C)c1Cc1c[nH]c2ncc(Cl)cc12 [P-0159, 4-(5-Chloro-1H-pyrrolo[2,3-b]pyridin-3-ylmethyl)-3,5-dimethyl-pyrazole-1-carboxylic acid 4-chloro-benzylamide] | < 1 µM
c1ccc(N2CCOCC2)c(CNc2ccc(Cc3c[nH]c4ncccc34)cn2)c1 [P-0358, (2-Morpholin-4-yl-benzyl)-[5-(1H-pyrrolo[2,3-b]pyridin-3-ylmethyl)-pyridin-2-yl]-amine] | < 1 µM
Cn1c(CNc2ccc(Cc3c[nH]c4ncccc34)cn2)nc2ccccc21 [P-0218, (1-Methyl-1H-benzoimidazol-2-ylmethyl)-[5-(1H-pyrrolo[2,3-b]pyridin-3-ylmethyl)-pyridin-2-yl]-amine] | < 1 µM
Cc1nn(Cc2ccc(C(F)(F)F)o2)c(C)c1Cc1c[nH]c2ncccc12 [P-0138, 3-[3,5-Dimethyl-1-(5-trifluoromethyl-furan-2-ylmethyl)-1H-pyrazol-4-ylmethyl]-1H-pyrrolo[2,3-b]pyridine] | < 1 µM
COc1ccc(CNc2ccc(Cc3c[nH]c4ncccc34)c(F)n2)cn1 [P-0378, [6-Fluoro-5-(1H-pyrrolo[2,3-b]pyridin-3-ylmethyl)-pyridin-2-yl]-(6-methoxy-pyridin-3-ylmethyl)-amine] | < 1 µM
Fc1c(CNc2ncc(Cc3c[nH]c4ncccc34)cn2)cccc1C(F)(F)F [P-0309, (2-Fluoro-3-trifluoromethyl-benzyl)-[5-(1H-pyrrolo[2,3-b]pyridin-3-ylmethyl)-pyrimidin-2-yl]-amine] | < 1 µM
COc1cccc(C(=O)Nc2ccc(Cc3c[nH]c4ncccc34)cn2)c1 [P-0120, 3-Methoxy-N-[5-(1H-pyrrolo[2,3-b]pyridin-3-ylmethyl)-pyridin-2-yl]-benzamide] | < 1 µM
COc1ccnc2[nH]cc(Cc3ccc(NCc4ccc(Cl)cc4)nc3)c12 [P-0010, [5-(4-Methoxy-1H-pyrrolo[2,3-b]pyridin-3-ylmethyl)-pyridin-2-yl]-(4-chloro-benzyl)-amine] | < 1 µM
Cc1cc(CNc2ccc(Cc3c[nH]c4ncccc34)cn2)nn1C [P-0131, (1,5-Dimethyl-1H-pyrazol-3-ylmethyl)-[5-(1H-pyrrolo[2,3-b]pyridin-3-ylmethyl)-pyridin-2-yl]-amine] | < 1 µM
c1ccc(CCNc2ccc(Cc3c[nH]c4ncccc34)cn2)cc1 [P-0211, Phenethyl-[5-(1H-pyrrolo[2,3-b]pyridin-3-ylmethyl)-pyridin-2-yl]-amine] | < 1 µM
Fc1cc(C(F)(F)F)ccc1CNc1ncc(Cc2c[nH]c3ncc(Cl)cc23)cn1 [P-0394, [5-(5-Chloro-1H-pyrrolo[2,3-b]pyridin-3-ylmethyl)-pyrimidin-2-yl]-(2-fluoro-4-trifluoromethyl-benzyl)-amine] | < 1 µM
Cc1nc(NCc2ccc(F)cc2)sc1Cc1c[nH]c2ncccc12 [P-0163, (4-Fluoro-benzyl)-[4-methyl-5-(1H-pyrrolo[2,3-b]pyridin-3-ylmethyl)-thiazol-2-yl]-amine] | < 1 µM
COc1ncccc1CNc1ccc(Cc2c[nH]c3ncccc23)cn1 [P-0215, (2-Methoxy-pyridin-3-ylmethyl)-[5-(1H-pyrrolo[2,3-b]pyridin-3-ylmethyl)-pyridin-2-yl]-amine] | < 1 µM
FC(F)(F)c1ccc(CNc2ccc(Cc3c[nH]c4ncccc34)cn2)cn1 [P-0182, [5-(1H-Pyrrolo[2,3-b]pyridin-3-ylmethyl)-pyridin-2-yl]-(6-trifluoromethyl-pyridin-3-ylmethyl)-amine] | < 1 µM
FC(F)(F)c1ccccc1CNc1ncc(Cc2c[nH]c3ncc(Cl)cc23)cn1 [P-0262, [5-(5-Chloro-1H-pyrrolo[2,3-b]pyridin-3-ylmethyl)-pyrimidin-2-yl]-(2-trifluoromethyl-benzyl)-amine] | < 1 µM
c1cncc(CNc2ccc(Cc3c[nH]c4ncccc34)cn2)c1 [P-0094, Pyridin-3-ylmethyl-[5-(1H-pyrrolo[2,3-b]pyridin-3-ylmethyl)-pyridin-2-yl]-amine] | < 1 µM
C[C@@H](Nc1ccc(Cc2c[nH]c3ncccc23)cn1)c1ccccc1 [P-0125, ((R)-1-Phenyl-ethyl)-[5-(1H-pyrrolo[2,3-b]pyridin-3-ylmethyl)-pyridin-2-yl]-amine] | < 1 µM
c1ccc(OCCN2CCOCC2)c(CNc2ccc(Cc3c[nH]c4ncccc34)cn2)c1 [P-0361, [2-(2-Morpholin-4-yl-ethoxy)-benzyl]-[5-(1H-pyrrolo[2,3-b]pyridin-3-ylmethyl)-pyridin-2-yl]-amine] | < 1 µM
COc1ccc(F)c(CNc2ccc(Cc3c[nH]c4ncccc34)cn2)c1 [P-0371, (2-Fluoro-5-methoxy-benzyl)-[5-(1H-pyrrolo[2,3-b]pyridin-3-ylmethyl)-pyridin-2-yl]-amine] | < 1 µM
O=C(Nc1ccc(Cc2c[nH]c3ncccc23)cn1)c1cccc(F)c1 [P-0121, 3-Fluoro-N-[5-(1H-pyrrolo[2,3-b]pyridin-3-ylmethyl)-pyridin-2-yl]-benzamide] | < 1 µM
Fc1cc(Cl)ccc1CNc1ncc(Cc2c[nH]c3ncccc23)cn1 [P-0314, (4-Chloro-2-fluoro-benzyl)-[5-(1H-pyrrolo[2,3-b]pyridin-3-ylmethyl)-pyrimidin-2-yl]-amine] | < 1 µM
COc1cccc(CNc2nc(Cl)c(Cc3c[nH]c4ncc(Cl)cc34)s2)n1 [P-0199, [4-Chloro-5-(5-chloro-1H-pyrrolo[2,3-b]pyridin-3-ylmethyl)-thiazol-2-yl]-(6-methoxy-pyridin-2-ylmethyl)-amine] | < 1 µM
Fc1ccccc1CNc1ncc(Cc2c[nH]c3ncc(Cl)cc23)cn1 [P-0264, [5-(5-Chloro-1H-pyrrolo[2,3-b]pyridin-3-ylmethyl)-pyrimidin-2-yl]-(2-fluoro-benzyl)-amine] | < 1 µM
O=C(Nc1ccc(Cc2c[nH]c3ncccc23)cn1)c1cccc(Cl)c1 [P-0111, 3-chloro-N-[5-(1H-pyrrolo[2,3-b]pyridin-3-ylmethyl)-pyridin-2-yl]-benzamide] | < 1 µM
N#Cc1cnc2[nH]cc(Cc3ccc(NCc4ccccc4Cl)nc3)c2c1 [P-0281, 3-[6-(2-Chloro-benzylamino)-pyridin-3-ylmethyl]-1H-pyrrolo[2,3-b]pyridine-5-carbonitrile] | < 1 µM
Fc1ccc(C(F)(F)F)cc1CNc1ccc(Cc2c[nH]c3ncccc23)cn1 [P-0350, (2-Fluoro-5-trifluoromethyl-benzyl)-[5-(1H-pyrrolo[2,3-b]pyridin-3-ylmethyl)-pyridin-2-yl]-amine] | < 1 µM
Cc1cc(CNc2ccc(Cc3c[nH]c4ncccc34)cn2)no1 [P-0095, (5-Methyl-isoxazol-3-ylmethyl)-[5-(1H-pyrrolo[2,3-b]pyridin-3-ylmethyl)-pyridin-2-yl]-amine] | < 1 µM
O=C(c1ccc(NCc2ccccc2F)nc1)c1c[nH]c2ncc(Cl)cc12 [P-0404, (5-chloro-1H-pyrrolo[2,3-b]pyridin-3-yl)-[6-(2-fluoro-benzylamino)-pyridin-3-yl]-methanone] | < 1 µM
Fc1cc(Cl)ccc1CNc1ccc(Cc2c[nH]c3ncccc23)cn1 [P-0345, (4-Chloro-2-fluoro-benzyl)-[5-(1H-pyrrolo[2,3-b]pyridin-3-ylmethyl)-pyridin-2-yl]-amine] | < 1 µM
Clc1cnc2[nH]cc(Cc3sc(NCCc4ccccc4)nc3Cl)c2c1 [P-0244, [4-Chloro-5-(5-chloro-1H-pyrrolo[2,3-b]pyridin-3-ylmethyl)-thiazol-2-yl]-phenethyl-amine] | < 1 µM
